Earlier results as cited in publication PMC12308805, “Ultrahigh-Throughput Virtual Screening Strategies against PPI Targets: A Case Study of STAT Inhibitors” (Journal of Chemical Information and Modeling, 2025).
Like-named read-outs stand apart in the source and are kept apart here. Numbered stars: 1 amine (or outer) side, 2 acyl side, 3 side chain; on linkers, the order of the positions; unused ones are H or OH. Square brackets hold non-standard residues; d marks the D form. Ends that are not written are not given here. Peptide text beside a SMILES is read from it. Phe(4-tetrazol-5-yl) = N[C@@H](Cc1ccc(-c2nnn[nH]2)cc1)C(=O)O; X2 = O=C([C@H](Cc1ccc(Cc2nn[nH]n2)cc1)N[*:1])[*:2]; pY = N[C@@H](Cc1ccc(OP(=O)(O)O)cc1)C(=O)O; d(aThr) = C[C@@H](O)[C@@H](N)C(=O)O

Tested on: STAT3
Conditions: cited from earlier work; for Type: retrospective screening set for STAT3 SH2 domain (PDB 6QHD), ref DUD-E
[1] = sheet 6QHD_actives_decoys, decoys generated with DUD-E and presumed inactive, not tested
[2] = sheet 6QHD_actives_decoys, decoys are presumed inactives, not tested
[3] = sheet 6QHD_actives_decoys, known STAT3 actives of the retrospective screening set, ref ChEMBL / literature

| Molecule | Type [1] | Type [2] | other results |
| --- | --- | --- | --- |
| CC[C@H]1OC(=O)[C@H](C)[C@@H](O[C@H]2OC[C@@](C)(OC)[C@@H](O)[C@@H]2C)[C@@H](C)[C@@H](O[C@H]2O[C@H](C)C[C@H](N(C)C)[C@H]2O)[C@](C)(O)C[C@H](C)/C(=N/O)[C@@H](C)[C@@H](O)[C@@]1(C)O [Decoy596] | Inactive (Decoy) |  |  |
| CCOC(=O)c1c(NC(=O)CSc2nnc(CNC(=O)c3ccco3)n2C)sc2c1CCC2 [Decoy722] | Inactive (Decoy) |  |  |
| COC(=O)CCSCCO[C@@H]1O[C@H](CO)[C@@H](O[C@@H]2O[C@H](CO)[C@@H](O)[C@@H](O)[C@H]2O)[C@H](O)[C@H]1NC(C)=O [Decoy354] | Inactive (Decoy) |  |  |
| O=C(O)c1ccccc1NS(=O)(=O)c1ccc(NCCCN2CCOCC2)c([N+](=O)[O-])c1 [Decoy387] | Inactive (Decoy) |  |  |
| CCOC(=O)c1c(NC(=O)CCSc2nnc(COC)n2N)sc2c1CCCC2 [Decoy934] |  | Inactive (Decoy) |  |
| CCCOc1cccc(C(=O)NC(=S)Nc2ccc(S(=O)(=O)Nc3cc(OC)ncn3)cc2)c1 [Decoy947] |  | Inactive (Decoy) |  |
| COc1ccc(CCN2C(=O)[C@H]3[C@@H](C2=O)[C@]2(N[C@@H]3Cc3ccc(O)c(O)c3)C(=O)Nc3ccc(Cl)cc32)cc1OC [Decoy728] | Inactive (Decoy) |  |  |
| O=S(=O)(O)c1cc(S(=O)(=O)O)c2c(/N=N/c3ccc([C@H](c4ccc(/N=N/c5ccc(O)cc5)cc4)C4CCCCC4)cc3)c(O)ccc2c1 [Decoy555] | Inactive (Decoy) |  |  |
| COc1cc(S(=O)(=O)N2CCCCC2)ccc1N/C=C1/C(=O)NC(=O)N(c2ccccc2)C1=O [Decoy344] |  |  | Type (sheet 6QHD_actives_decoys, […]): Inactive (Decoy) |
| NC(=O)CC[C@H](NC(=O)[C@@H]1CC[C@@H]2CC[C@H](NC(=O)/C=C/c3ccc(OP(=O)(O)O)cc3)C(=O)N21)C(=O)NCc1ccccc1 [CHEMBL445970] |  |  | Type (known STAT3 active) [3]: Active |
| CC(=O)O[C@H]1[C@@H](O)[C@H](CO)O[C@H](O[C@@H](C/N=C/c2c(O)cc(O)c3ccccc23)[C@@H](CO)O[C@H](O)C/N=C/c2c(O)cc(O)c3ccccc23)[C@@H]1O [Decoy742] |  | Inactive (Decoy) |  |
| CC[C@@H](O)[C@@](C)(O)/C=C(\C)C(=O)[C@H](C)C[C@@](C)(OC)[C@H](O[C@@H]1O[C@H](C)C[C@H](N(C)C)[C@H]1O)[C@@H](C)[C@H](O[C@H]1C[C@@](C)(OC)[C@@H](O)[C@H](C)O1)[C@@H](C)C(=O)O [Decoy657] | Inactive (Decoy) |  |  |
| NC(=O)C1CCN(C(=O)[C@@H]2Cc3cccc4c3N2C(=O)[C@@H](NC(=O)/C=C/c2ccc(OP(=O)(O)O)cc2)CC4)C1 (stereo partly shown) [CHEMBL515762] |  |  | Type (known STAT3 active) [3]: Active |
| CCOc1ccc(NS(=O)(=O)c2ccc3c(c2)CC(=O)N3)cc1S(=O)(=O)N1CCCC1 [Decoy537] |  |  | Type (sheet 6QHD_actives_decoys, […]): Inactive (Decoy) |
| CC(=O)O[C@H]([C@H](OC(C)=O)[C@H](OC(C)=O)C(=O)NC1CCCCCC1)[C@H](OC(C)=O)C(=O)NC1CCCCCC1 [Decoy425] | Inactive (Decoy) |  |  |
| Cc1ccc(NC(=O)NC[C@@H](C)Cn2cccn2)cc1NC(=O)NC[C@H](C)Cn1cccn1 [Decoy618] | Inactive (Decoy) |  |  |
| COc1cc(C(=O)NCc2nnc(SCC(=O)Nc3ccc(F)cc3)n2-c2cccc(C)c2)cc(OC)c1OC [Decoy628] | Inactive (Decoy) |  |  |
| OCCN(CCO)C1=N[C@@H]2C(N3CCCCC3)=NC(N(CCO)CCO)=N[C@@H]2C(N2CCCCC2)=N1 [Decoy648] | Inactive (Decoy) |  |  |
| COc1ccc(C(=O)O[C@H]2[C@@H]3C=CO[C@@H](O[C@@H]4O[C@H](COC(C)=O)[C@@H](OC(C)=O)[C@H](OC(C)=O)[C@H]4OC(C)=O)[C@@H]3[C@](O)(COC(C)=O)[C@@H]2O)cc1 [Decoy372] | Inactive (Decoy) |  |  |
| COC(=O)c1cc(NC(=S)/N=C(/NCCN2CCOCC2)Nc2nc(C)cc(C)n2)cc(C(=O)OC)c1 [Decoy366] | Inactive (Decoy) |  |  |
| CC(=O)N[C@@H](Cc1ccc(OP(=O)(O)O)cc1)C(=O)N[C@@H](CC(C)C)C(=O)N1CCC[C@@H]1C(=O)N[C@H](CCC(N)=O)C(=O)N[C@@H](C(=O)N[C@H](C)C(=O)O)[C@@H](C)O [CHEMBL157727] (Ac-[pY]L[dP][dQ][d(aThr)][dA]-OH) |  |  | Type (known STAT3 active) [3]: Active |
| COc1ccccc1NS(=O)(=O)c1cccc(C(=O)NNC(=O)CCn2c(C)csc2=O)c1 [Decoy725] | Inactive (Decoy) |  |  |
| COC(=O)[C@@H]1O[C@H](OC/C(=N/NC(N)=O)[C@@]2(O)CC[C@@H]3[C@@H]4CC[C@@H]5C[C@H](OC(C)=O)CC[C@@]5(C)[C@H]4C(=O)C[C@]32C)[C@@H](OC(C)=O)[C@H](OC(C)=O)[C@H]1OC(C)=O [Decoy338] | Inactive (Decoy) |  |  |
| CC(C)C[C@H](NC(=O)/C=C/c1ccc(OP(=O)(O)O)cc1)C(=O)N1CCC[C@H]1C(=O)N[C@H](C(=O)NCc1ccccc1)[C@@H](C)OC(N)=O [CHEMBL376795] |  |  | Type (known STAT3 active): Active |
| COc1cc(/C=N/Nc2nc(SCC(=O)Nc3cc(F)ccc3C)n[nH]2)cc(OC)c1OC [Decoy676] | Inactive (Decoy) |  |  |
| VAITVLVK [Decoy793] |  | Inactive (Decoy) |  |

| Molecule | Type [1] | Type [2] | other results |
| --- | --- | --- | --- |
| O=C(CSc1n[nH]c(N/N=C/c2ccc(OCc3ccc(F)cc3)o2)n1)Nc1nccs1 [Decoy487] | Inactive (Decoy) |  |  |
| COc1cc(C(=O)OC[C@]2(O)CO[C@H](OC[C@@H]3O[C@@H](Oc4c(OC)cc(CO)cc4OC)[C@H](O)[C@H](O)[C@@H]3O)[C@@H]2O)cc(OC)c1O [Decoy800] |  | Inactive (Decoy) |  |
| CCCCOC(=O)C1=C(C)Nc2nc(SCc3ccccc3Cl)nn2[C@@H]1c1ccccc1C(=O)O [Decoy762] |  | Inactive (Decoy) |  |
| CCN(CC)c1ccc(NC(=S)NC(=O)c2ccco2)cc1S(=O)(=O)Nc1ccc(OC)cc1 [Decoy769] |  | Inactive (Decoy) |  |
| O=C(NC(CO[C@H]1[C@H](O)[C@H](O)[C@H](O)O[C@@H]1CO)CO[C@H]1[C@H](O)[C@H](O)[C@@H](O)O[C@@H]1CO)c1ccc(C2(C(F)(F)F)N=N2)cc1 (stereo partly shown) [Decoy734] |  | Inactive (Decoy) |  |
| COC(=O)[C@@H]1O[C@H](OC/C(=N/NC(N)=O)[C@H]2CC[C@@H]3[C@@H]4CC[C@@H]5C[C@H](OC(C)=O)CC[C@@]5(C)[C@H]4[C@H](O)C[C@@]23C)[C@@H](OC(C)=O)[C@H](OC(C)=O)[C@H]1OC(C)=O [Decoy498] | Inactive (Decoy) |  |  |
| CC(=O)N[C@@H](Cc1ccc(Cc2nn[nH]n2)cc1)C(=O)N[C@@H](CC(C)C)C(=O)N1CCC[C@H]1C(=O)N[C@@H](CCC(N)=O)C(=O)N[C@H](C(=O)N[C@H](C(=O)O)C(C)C)[C@@H](C)O [CHEMBL233355] (Ac-[X2]LPQTV-OH) |  |  | Type (known STAT3 active) [3]: Active |
| CC(=O)N[C@@H](C=O)C[C@@H](O[C@@H]1O[C@H](COC(C)=O)[C@H](OC(C)=O)[C@H](OC(C)=O)[C@H]1OC(C)=O)[C@H](O)[C@H](O)CO [Decoy561] | Inactive (Decoy) |  |  |
| COc1ccc(NC(=O)c2cc(C)nc3c2c(C)nn3C)cc1NS(=O)(=O)c1ccc(F)cc1 [Decoy619] |  |  | Type (sheet 6QHD_actives_decoys, […]): Inactive (Decoy) |
| CCN(CC)c1ccc(C(=O)OCC(=O)Nc2cccc(S(=O)(=O)/N=C3\CCCCCN3)c2)cc1 [Decoy504] | Inactive (Decoy) |  |  |
| COc1cc(C(=O)O)ccc1O[C@@H]1O[C@H](COC(=O)c2ccc(O)c(O)c2)[C@@H](O)[C@H](O)[C@H]1O [Decoy842] |  | Inactive (Decoy) |  |
| COc1ccc(NS(=O)(=O)c2cccc(NS(=O)(=O)c3cccc([N+](=O)[O-])c3)c2)cc1 [Decoy709] |  |  | Type (sheet 6QHD_actives_decoys, […]): Inactive (Decoy) |
| Cc1cccc(N(C(=O)c2snc(C(N)=O)c2N)[C@H](C(=O)NCCC(C)C)c2ccc(N(C)C)cc2)c1 [Decoy870] |  | Inactive (Decoy) |  |
| CCOC(=O)CNC(=O)CN1CCOCCOCCN(CC(=O)NCC(=O)OCC)CCOCCOCC1 [Decoy595] | Inactive (Decoy) |  |  |
| C[n+]1c(N[N-]S(=O)(=O)c2cccc(C(=O)NC(C)(C)CC(C)(C)CC(C)(C)C)c2)sc2ccc(S(=O)(=O)C(F)F)cc21 [Decoy889] |  | Inactive (Decoy) |  |
| CC1=CC(=O)CC(C)(C)[C@H]1/C=C/[C@@H](C)O[C@@H]1O[C@H](CO)[C@@H](O)[C@H](O)[C@H]1O[C@@H]1OC[C@](O)(CO)[C@H]1O [Decoy772] |  | Inactive (Decoy) |  |
| CO[C@@H]1[C@@H](OC(N)=O)[C@H](O)[C@@H](Oc2ccc3c(O)c(NC(=O)c4ccc(O)c(CC=C(C)C)c4)c(=O)oc3c2C)OC1(C)C [Decoy883] |  | Inactive (Decoy) |  |
| CC(=O)N[C@@H]1[C@@H](OC(C)=O)[C@H](OC(C)=O)[C@@H](COC(C)=O)O[C@H]1Sc1nnc(-c2ccccc2)n1C(C)C [Decoy955] |  | Inactive (Decoy) |  |
| CC(=O)N[C@@H](Cc1ccc(-c2nn[nH]n2)cc1)C(=O)N[C@@H](CC(C)C)C(=O)N1CCC[C@H]1C(=O)N[C@@H](CCC(N)=O)C(=O)N[C@H](C(=O)N[C@H](C(=O)O)C(C)C)[C@@H](C)O [CHEMBL439390] (Ac-[Phe(4-tetrazol-5-yl)]LPQTV-OH) |  |  | Type (known STAT3 active) [3]: Active |
| COc1ccc(OC)c(S(=O)(=O)Nc2ccc(S(=O)(=O)Nc3nccc(C)n3)cc2)c1 [Decoy835] |  | Inactive (Decoy) |  |
| CC(=O)Nc1ccc(S(=O)(=O)N[C@@]2(C(F)(F)F)C(=O)N=C3C2=C(O)N=C(S)N3Cc2ccco2)cc1 [Decoy697] |  |  | Type (sheet 6QHD_actives_decoys, […]): Inactive (Decoy) |
| Cc1cc(C)nc(N/C(=N/C(=O)Nc2cccc(Cl)c2)NCCSCc2[nH]cnc2C)n1 [Decoy901] |  | Inactive (Decoy) |  |
| CCCNC(=O)CN1CCN(c2cc(C(=O)O)c3cc(NS(=O)(=O)c4cccs4)ccc3n2)CC1 [Decoy543] | Inactive (Decoy) |  |  |
| COc1cc(C[C@@]2(O)CO[C@H](c3ccc(O[C@@H]4O[C@H](CO)[C@@H](O)[C@H](O)[C@H]4O)c(OC)c3)[C@H]2CO)ccc1O [Decoy816] |  | Inactive (Decoy) |  |
| COCCN(CCOC)S(=O)(=O)c1ccc(C(=O)Nc2sccc2C(=O)NN(C)C)cc1 [Decoy623] | Inactive (Decoy) |  |  |
| C[C@@H]1O[C@@H](O[C@H]2[C@H](O)C[C@H](O[C@H]3[C@H](O)C[C@H](O[C@H]4CC[C@@]5(C)[C@H](CC[C@@H]6[C@@H]5CC[C@]5(C)[C@@H](C7=CC(=O)OC7)CC[C@]65O)C4)O[C@@H]3C)O[C@@H]2C)C[C@@H](O)[C@@H]1O [Decoy469] | Inactive (Decoy) |  |  |
